# Assay results taken from US20240300932A1, “N-PHENYLIMINE DERIVATIVE AND PREPARATION METHOD AND USE THEREOF” (Guizhou University, priority 2023, published 2024).
# Legend:
# Test in all cases: Post-emergence herbicidal activity test (stem and leaf spray, pot culture)
# Format in all cases: in vivo
# Conditions in all cases: 3 weeks after spraying
# Abutilon theophrasti = system: Abutilon theophrasti
# Method in brief: (§1)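 Read-out: fresh weight control rate 3 weeks post-spray, graded 5 (≥85%) down to 0 (<5%). Foliar spray at 2–3-leaf stage; rates 10, 5, 2.5 g/mu; acetone + Tween 80 formulation with methyl oleate synergist; greenhouse 20–30 °C, natural light.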
# Echinochloa crusgalli = system: Echinochloa crusgalli
# Method in brief: as §1
# Portulaca oleracea = system: Portulaca oleracea
# Method in brief: as §1
# Amaranthus retroflexus = system: Amaranthus retroflexus
# Method in brief: as §1
# Setaria viridis = system: Setaria viridis
# Method in brief: as §1
# Trifoliumre pensL. = system: Trifoliumre pensL.
# Method in brief: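 Pot-grown weeds in loam (pH 7), greenhouse at 20–30 °C, sprayed once post-emergence at the 2–3-leaf stage. Compound in acetone with Tween 80 plus methyl oleate oil (1.5 L/ha), applied at 10, 5 and 2.5 g/mu by spray tower. Effect scored 3 weeks after spraying, averaged over three repeats.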
Structure (SMILES),"Post-emergence herbicidal activity, A. theophrasti (grade) (Abutilon theophrasti; dosage 2.5 g/mu)","Post-emergence herbicidal activity, A. theophrasti (grade) (Abutilon theophrasti; dosage 5 g/mu)","Post-emergence herbicidal activity, A. theophrasti (grade) (Abutilon theophrasti; dosage 10 g/mu)","Post-emergence herbicidal activity, E. crusgalli (grade) (Echinochloa crusgalli; dosage 2.5 g/mu)","Post-emergence herbicidal activity, E. crusgalli (grade) (Echinochloa crusgalli; dosage 5 g/mu)","Post-emergence herbicidal activity, E. crusgalli (grade) (Echinochloa crusgalli; dosage 10 g/mu)","Post-emergence herbicidal activity, P. oleracea (grade) (Portulaca oleracea; dosage 2.5 g/mu)","Post-emergence herbicidal activity, P. oleracea (grade) (Portulaca oleracea; dosage 5 g/mu)","Post-emergence herbicidal activity, P. oleracea (grade) (Portulaca oleracea; dosage 10 g/mu)","Post-emergence herbicidal activity, A. retroflexus (grade) (Amaranthus retroflexus; dosage 2.5 g/mu)","Post-emergence herbicidal activity, A. retroflexus (grade) (Amaranthus retroflexus; dosage 5 g/mu)","Post-emergence herbicidal activity, A. retroflexus (grade) (Amaranthus retroflexus; dosage 10 g/mu)","Post-emergence herbicidal activity, S. viridis (grade) (Setaria viridis; dosage 2.5 g/mu)","Post-emergence herbicidal activity, S. viridis (grade) (Setaria viridis; dosage 5 g/mu)","Post-emergence herbicidal activity, S. viridis (grade) (Setaria viridis; dosage 10 g/mu)","Post-emergence herbicidal activity, Trifoliumre pensL. (grade) (Trifoliumre pensL.; dosage 2.5 g/mu)","Post-emergence herbicidal activity, Trifoliumre pensL. (grade) (Trifoliumre pensL.; dosage 5 g/mu)","Post-emergence herbicidal activity, Trifoliumre pensL. (grade) (Trifoliumre pensL.; dosage 10 g/mu)"
"COc1ccccc1C(=O)COc1cc(N2C(=O)C3=C(CCCC3)C2=O)c(F)cc1Cl [Compound C6, 2-(4-chloro-2-fluoro-5-(2-oxo-2-(2-methoxyphenyl)ethoxy)phenyl)-4,5,6,7-tetrahydro-1H-isoindole-1,3(2H)-dione]",5 (Grade 5: the growth control rate is greater than or equal to 85%),5 (Grade 5: the growth control rate is greater than or equal to 85%),5 (Grade 5: the growth control rate is greater than or equal to 85%),1 (Grade 1: the growth control rate is greater than or equal to 5% and less than 20%),2 (Grade 2: the growth control rate is greater than or equal to 20% and less than 40%),3 (Grade 3: the growth control rate is greater than or equal to 40% and less than 60%),5 (Grade 5: the growth control rate is greater than or equal to 85%),5 (Grade 5: the growth control rate is greater than or equal to 85%),5 (Grade 5: the growth control rate is greater than or equal to 85%),5 (Grade 5: the growth control rate is greater than or equal to 85%),5 (Grade 5: the growth control rate is greater than or equal to 85%),5 (Grade 5: the growth control rate is greater than or equal to 85%),2 (Grade 2: the growth control rate is greater than or equal to 20% and less than 40%),3 (Grade 3: the growth control rate is greater than or equal to 40% and less than 60%),4 (Grade 4: the growth control rate is greater than or equal to 60% and less than 85%),5 (Grade 5: the growth control rate is greater than or equal to 85%),5 (Grade 5: the growth control rate is greater than or equal to 85%),5 (Grade 5: the growth control rate is greater than or equal to 85%)
CC(C)(C)c1ccc(-c2noc(COc3cc(N4C(=O)C5=C(CCCC5)C4=O)c(F)cc3Cl)n2)cc1 [Compound A26],5 (Grade 5: the growth control rate is greater than or equal to 85%),5 (Grade 5: the growth control rate is greater than or equal to 85%),5 (Grade 5: the growth control rate is greater than or equal to 85%),1 (Grade 1: the growth control rate is greater than or equal to 5% and less than 20%),2 (Grade 2: the growth control rate is greater than or equal to 20% and less than 40%),3 (Grade 3: the growth control rate is greater than or equal to 40% and less than 60%),4 (Grade 4: the growth control rate is greater than or equal to 60% and less than 85%),5 (Grade 5: the growth control rate is greater than or equal to 85%),5 (Grade 5: the growth control rate is greater than or equal to 85%),5 (Grade 5: the growth control rate is greater than or equal to 85%),5 (Grade 5: the growth control rate is greater than or equal to 85%),5 (Grade 5: the growth control rate is greater than or equal to 85%),2 (Grade 2: the growth control rate is greater than or equal to 20% and less than 40%),3 (Grade 3: the growth control rate is greater than or equal to 40% and less than 60%),4 (Grade 4: the growth control rate is greater than or equal to 60% and less than 85%),4 (Grade 4: the growth control rate is greater than or equal to 60% and less than 85%),5 (Grade 5: the growth control rate is greater than or equal to 85%),5 (Grade 5: the growth control rate is greater than or equal to 85%)
O=C1C2=C(CCCC2)C(=O)N1c1cc(OCc2nnc(-c3ccccc3F)o2)c(Cl)cc1F [Compound B4],4 (Grade 4: the growth control rate is greater than or equal to 60% and less than 85%),5 (Grade 5: the growth control rate is greater than or equal to 85%),5 (Grade 5: the growth control rate is greater than or equal to 85%),1 (Grade 1: the growth control rate is greater than or equal to 5% and less than 20%),2 (Grade 2: the growth control rate is greater than or equal to 20% and less than 40%),3 (Grade 3: the growth control rate is greater than or equal to 40% and less than 60%),4 (Grade 4: the growth control rate is greater than or equal to 60% and less than 85%),5 (Grade 5: the growth control rate is greater than or equal to 85%),5 (Grade 5: the growth control rate is greater than or equal to 85%),5 (Grade 5: the growth control rate is greater than or equal to 85%),5 (Grade 5: the growth control rate is greater than or equal to 85%),5 (Grade 5: the growth control rate is greater than or equal to 85%),2 (Grade 2: the growth control rate is greater than or equal to 20% and less than 40%),3 (Grade 3: the growth control rate is greater than or equal to 40% and less than 60%),4 (Grade 4: the growth control rate is greater than or equal to 60% and less than 85%),5 (Grade 5: the growth control rate is greater than or equal to 85%),5 (Grade 5: the growth control rate is greater than or equal to 85%),5 (Grade 5: the growth control rate is greater than or equal to 85%)
"CCCCCCCCC(=O)Nc1cc(N2C(=O)C3=C(CCCC3)C2=O)c(F)cc1Cl [Compound D7, N-(2-chloro-5-(1,3-dioxo-1,3,4,5,6,7-hexahydro-2H-isoindole-2-yl)-4-fluorophenyl)nonanamide]",,,5 (Grade 5: the growth control rate is greater than or equal to 85%),,,3 (Grade 3: the growth control rate is greater than or equal to 40% and less than 60%),,,5 (Grade 5: the growth control rate is greater than or equal to 85%),,,5 (Grade 5: the growth control rate is greater than or equal to 85%),,,4 (Grade 4: the growth control rate is greater than or equal to 60% and less than 85%),,,5 (Grade 5: the growth control rate is greater than or equal to 85%)
